Assay results reported in article PMC9378703 (Nature Communications, 2022).

Columns and labels:
Uba1 [1] = target: T1, Uba1 (Saccharomyces cerevisiae, UniProt P22515, D544E); assay: colorimetric ATPase assay (BIOMOL-GREEN phosphate, pyrophosphatase-coupled); assay type: biochemical; settings: 80 μM ubiquitin, 1 mM ATP, 2 mM MgCl2, pH 7.5, 30 °C; turnover
T1 construct: residues 10-1024; N-terminal His-tag (pET28a); expressed in E. coli BL21 (DE3)

Uba1 [2] = target: T2, Uba1 (Saccharomyces cerevisiae, UniProt P22515, D472A); assay: as above; assay type: biochemical; settings: 80 μM ubiquitin, 1 mM ATP, 2 mM MgCl2, pH 7.5, 30 °C; turnover
T2 construct: residues 10-1024; N-terminal His-tag (pET28a); expressed in E. coli BL21 (DE3)
T2 sequence (P22515 10-1024 D472A): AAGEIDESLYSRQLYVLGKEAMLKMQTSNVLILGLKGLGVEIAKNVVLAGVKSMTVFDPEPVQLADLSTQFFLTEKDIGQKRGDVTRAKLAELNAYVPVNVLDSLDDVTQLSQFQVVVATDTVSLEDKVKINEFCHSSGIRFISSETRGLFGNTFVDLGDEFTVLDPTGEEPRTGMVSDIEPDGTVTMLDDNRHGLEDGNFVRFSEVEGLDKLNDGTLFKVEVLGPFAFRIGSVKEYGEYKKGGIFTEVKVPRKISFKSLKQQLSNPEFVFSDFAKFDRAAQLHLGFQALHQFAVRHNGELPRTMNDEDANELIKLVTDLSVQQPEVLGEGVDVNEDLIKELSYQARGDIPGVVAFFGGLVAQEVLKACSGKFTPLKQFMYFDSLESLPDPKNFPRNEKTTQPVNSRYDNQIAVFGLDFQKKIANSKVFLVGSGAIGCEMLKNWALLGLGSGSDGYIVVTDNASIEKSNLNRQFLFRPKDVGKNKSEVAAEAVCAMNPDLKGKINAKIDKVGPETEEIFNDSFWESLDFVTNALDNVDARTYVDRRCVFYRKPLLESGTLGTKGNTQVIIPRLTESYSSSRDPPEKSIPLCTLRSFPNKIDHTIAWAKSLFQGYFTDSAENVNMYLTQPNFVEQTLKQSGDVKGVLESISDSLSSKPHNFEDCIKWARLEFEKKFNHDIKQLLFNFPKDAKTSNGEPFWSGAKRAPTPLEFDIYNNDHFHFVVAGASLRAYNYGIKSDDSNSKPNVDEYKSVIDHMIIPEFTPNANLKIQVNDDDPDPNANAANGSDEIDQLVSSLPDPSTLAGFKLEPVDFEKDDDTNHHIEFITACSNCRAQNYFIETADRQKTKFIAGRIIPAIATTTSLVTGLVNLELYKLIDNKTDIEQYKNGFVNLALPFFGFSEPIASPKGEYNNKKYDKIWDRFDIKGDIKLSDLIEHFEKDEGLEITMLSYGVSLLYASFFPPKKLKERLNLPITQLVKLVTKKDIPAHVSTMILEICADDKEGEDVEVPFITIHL

T1 sequence (P22515 10-1024 D544E): as the sequence (P22515 10-1024 D472A) above, with A463D, D535E counted along it

Nc1ncnc2c1ncn2[C@@H]1O[C@H](COP(=O)(O)OP(=O)(O)OP(=O)(O)O)[C@@H](O)[C@H]1O [ATP]
colorimetric ATPase assay (BIOMOL-GREEN phosphate, pyrophosphatase-coupled) (Uba1 [1]): the D472A variant retained full activity as did the D472E or D544E substitutions | colorimetric ATPase assay (BIOMOL-GREEN phosphate, pyrophosphatase-coupled) (Uba1 [2]): the D472A variant retained full activity as did the D472E or D544E substitutions
